The text below walks through data of patent US20100105772A1, “USE OF NOVEL LIPID MEDIATORS TO INHIBIT ANGIOGENESIS” (priority 2008, published 2010).

The conditions of data set [1]: stable analog of LXA4/ATL; reference 36; cited from earlier work.
For data set [2], the system named is VEGFR-2 mRNA. Kind of data set: Real-time PCR of VEGFR-2 mRNA in suture-induced inflamed corneas. In kind it is in vivo, mice. Particulars: 24 h and 72 h after suture placement; vs vehicle-treated group. How it is done:
FIG. 4. The Impact of Lipoxin on the mRNA Expression of VEGFs and VEGFRs in Inflamed Corneas. ATLa or vehicle was subconjunctivally injected at 0 h and 48 h after suture placement. For each compound treatment, corneas were harvested from a group of mice at 24 h, and another group at 72 h after suture placement, as well as from normal untreated control corneas (6 corneas per group). (A) VEGF ligand species (VEGF-A, VEGF-C, VEGF-D) and (B) VEGFRs (VEGFR2 and VEGFR3) were tested by real-time PCR and normalized to GAPDH mRNA. Values are expressed as fold change over the normal control cornea. Results represent the mean (±SEM) of three samples per group (each sample consisted of 2 pooled corneas), and the data are representative of two independent experiments (*P<0.05, **P<0.001, ***P<0.0005, vs vehicle-treated group, t-test). […]
BALB/c mice were randomized to receive ATLa, or vehicle (normal saline) by subconjunctival injection in a masked fashion after suture or hydron pellet placement. […] ATLa was synthesized as described previously.^20 The physical properties were monitored routinely via LC/MS/MS matching the reported biological and physical properties prior to analysis in present experiments. […]

The subject of data set [3] is macrophages. The experiment in a line: Macrophage infiltration in suture-induced inflamed corneas (F4/80 staining of cross-sections). It is filed as in vivo, mice. Particulars: 72 h after suture placement. How it is done:
ATLa or vehicle was subconjunctivally injected at 0 h and 48 h after suture placement. For each compound treatment, eyes were enucleated from a group of mice at 24 h, and another group at 72 h after suture placement (3 eyes per group). Cross-sections were stained with anti-neutrophil (NIMP-R14) or anti-macrophage (F4/80) Ab, and 12 sections were used to enumerate the respective leukocyte populations. Results represent the mean (±SEM) of 3 eyes per group (*P<0.05, **P<0.001 vs vehicle-treated group, t-test), and data are representative of two independent experiments. […]
BALB/c mice were randomized to receive ATLa, or vehicle (normal saline) by subconjunctival injection in a masked fashion after suture or hydron pellet placement. […] ATLa was synthesized as described previously.^20 The physical properties were monitored routinely via LC/MS/MS matching the reported biological and physical properties prior to analysis in present experiments.
Full thickness corneal tissue or 8 μm-frozen sections were fixed in acetone for 15 minutes at room temperature. […] Finally, the samples were covered with mounting medium (Vector Laboratories, Burlingame, Calif.) and analyzed by epifluorescence microscopy (Eclipse E800; Nikon, Tokyo, Japan). […]

Each structure is given as a SMILES string.

Regarding `COC(=O)CCC[C@H](O)[C@H](O)/C=C/C=C/C=C\C=C\[C@H](O)COc1ccc(F)cc1` [ATLa, 15-epi-16-(para-fluoro)-phenoxy-lipoxin A4 methyl ester], the “local inactivation (stability)” value in data set [1] is “resists local inactivation”. Further, the “VEGFR-2 mRNA expression” value in data set [2] is given as “lower”. Moreover, the macrophages per section in data set [3] (n=3, mean±SEM) was determined as 46±5 cells/section. Further, the “reduction in macrophage infiltration” value in data set [3] (vs vehicle control group) is 25-40%.
